Test results taken from patent US20230265151A1, “GIP/GLP1 CO-AGONIST COMPOUNDS” (priority 2020, published 2023).
Like-named read-outs stand apart in the source and are kept apart here.

Experiments:
Type in all cases: cell-based
hGCGR = target: T1, hGCGR (Homo sapiens, UniProt P47871); assay: Functional cAMP formation (HTRF) in HEK-293 clonal cells expressing hGCGR, 0.1% bovine casein, without or with 1.0% human serum albumin; conditions: 37° C.
T1 construct: expressed in transfected cells
In short: (§1)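 Cells were stimulated with peptide for 30 min at 37° C, then intracellular cAMP was measured by competitive HTRF (665/620 nm ratio) and converted to nM using a cAMP standard curve. Relative EC50 and Emax came from four-parameter logistic fits of percent maximal response against peptide concentration.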

hGLP-1R = hGLP-1R (Homo sapiens, UniProt P43220); assay: Functional cAMP formation (HTRF) in HEK-293 clonal cells expressing hGLP-1R, 0.1% bovine casein, without or with 1.0% human serum albumin; parameters: expressed in transfected cells; conditions: for Emax: percent of maximal response to GLP-1(7-36)NH2, arithmetic mean; for EC50: cAMP
In short: as §1

hGIPR = target: T2, hGIPR (Homo sapiens, UniProt P48546); assay: Functional cAMP formation (HTRF) in HEK-293 clonal cells expressing hGIPR, 0.1% bovine casein, without or with 1.0% human serum albumin; conditions: 37° C.; for Emax: HEK293, cAMP, percent of maximal response to GIP(1-42)NH2, read-out: hGIPR Emax, % ± SEM; for EC50: geometric mean
T2 construct: expressed in transfected cells
T2 sequence (P48546 22-466): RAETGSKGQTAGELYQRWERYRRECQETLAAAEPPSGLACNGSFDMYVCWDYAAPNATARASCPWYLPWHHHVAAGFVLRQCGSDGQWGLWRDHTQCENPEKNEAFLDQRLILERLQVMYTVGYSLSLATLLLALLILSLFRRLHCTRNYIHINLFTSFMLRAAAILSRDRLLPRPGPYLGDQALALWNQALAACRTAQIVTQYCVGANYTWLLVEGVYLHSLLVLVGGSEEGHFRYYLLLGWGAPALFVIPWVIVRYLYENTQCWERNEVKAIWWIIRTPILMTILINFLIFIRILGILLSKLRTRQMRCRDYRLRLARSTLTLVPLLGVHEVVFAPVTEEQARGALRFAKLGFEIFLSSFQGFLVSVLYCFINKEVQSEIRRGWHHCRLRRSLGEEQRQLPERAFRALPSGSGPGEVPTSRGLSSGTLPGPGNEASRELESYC
In short: as §1

[1] = cAMP, 0.1% bovine casein (no human serum albumin), geometric mean, read-out: hGCGR EC50, nM (SEM, n)
[2] = cAMP, 0.1% bovine casein and 1.0% human serum albumin, geometric mean (SEM, n), read-out: hGCGR EC50, nM (SEM, n)
[3] = HEK293, cAMP, 37° C., 0.1% bovine casein, read-out: hGLP-1R Emax, % ± SEM
[4] = 37° C., 0.1% bovine casein (no human serum albumin), geometric mean, read-out: hGLP-1R EC50, nM (SEM, n)
[5] = 37° C., 0.1% bovine casein and 1.0% human serum albumin, geometric mean (SEM, n), read-out: hGLP-1R EC50, nM (SEM, n)
[6] = 0.1% bovine casein and 1.0% human serum albumin
[7] = 0.1% bovine casein, arithmetic mean
[8] = cAMP, 0.1% bovine casein (no human serum albumin), read-out: hGIPR EC50, nM (SEM, n)

T1 sequence (P47871 26-477): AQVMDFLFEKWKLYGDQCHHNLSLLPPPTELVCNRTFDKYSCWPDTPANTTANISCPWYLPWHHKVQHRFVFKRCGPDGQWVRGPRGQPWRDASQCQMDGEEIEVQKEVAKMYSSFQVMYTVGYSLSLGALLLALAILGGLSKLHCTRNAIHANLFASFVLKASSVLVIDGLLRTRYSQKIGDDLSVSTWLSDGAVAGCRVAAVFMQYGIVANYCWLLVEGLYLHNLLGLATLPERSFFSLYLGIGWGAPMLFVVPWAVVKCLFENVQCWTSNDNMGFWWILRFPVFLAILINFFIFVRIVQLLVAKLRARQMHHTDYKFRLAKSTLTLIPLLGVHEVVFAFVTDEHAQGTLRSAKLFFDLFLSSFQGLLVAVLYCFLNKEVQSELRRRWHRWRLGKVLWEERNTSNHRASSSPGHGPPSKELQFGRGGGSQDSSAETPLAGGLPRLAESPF
Chain of hGLP-1R (P43220 24-463): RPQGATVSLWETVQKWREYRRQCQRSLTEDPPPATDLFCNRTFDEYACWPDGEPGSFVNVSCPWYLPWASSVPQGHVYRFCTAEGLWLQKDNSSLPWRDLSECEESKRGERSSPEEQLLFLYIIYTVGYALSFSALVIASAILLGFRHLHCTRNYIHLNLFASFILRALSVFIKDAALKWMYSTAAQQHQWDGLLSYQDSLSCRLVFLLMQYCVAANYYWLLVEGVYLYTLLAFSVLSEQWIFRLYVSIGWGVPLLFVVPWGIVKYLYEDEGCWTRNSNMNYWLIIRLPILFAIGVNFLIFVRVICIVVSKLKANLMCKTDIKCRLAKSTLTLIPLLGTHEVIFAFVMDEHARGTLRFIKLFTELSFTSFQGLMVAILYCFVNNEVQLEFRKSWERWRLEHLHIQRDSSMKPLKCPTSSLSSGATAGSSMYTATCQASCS

Structure (SMILES)	EC50 (hGCGR; [1])	EC50 (hGCGR; [2])	Emax (hGLP-1R; [3])	EC50 (hGLP-1R; [4])	EC50 (hGLP-1R; [5])	Emax (hGIPR; [6])	Emax (hGIPR; [7])	EC50 (hGIPR; [8])	EC50 (hGCGR; hGCGR EC50, nM (SEM, n), 0.1% bovine casein and 1.0% human serum albumin, geometric mean)	EC50 (hGCGR; hGCGR EC50, nM (SEM, n), cAMP, 0.1% bovine casein (no human serum albumin), geometric mean)	Emax (hGLP-1R; HEK293, read-out: hGLP-1R Emax, % ± SEM, cAMP, 37° C., 0.1% bovine casein)	EC50 (hGLP-1R; hGLP-1R EC50, nM (SEM, n), 37° C., 0.1% bovine casein (no human serum albumin), geometric mean)	EC50 (hGIPR; hGIPR EC50, nM (SEM, n), 0.1% bovine casein and 1.0% human serum albumin)	EC50 (hGIPR; hGIPR EC50, nM (SEM, n), cAMP, 0.1% bovine casein (no human serum albumin))
CC[C@H](C)[C@H](NC(=O)[C@H](CCCN)NC(=O)[C@H](CC(=O)O)NC(=O)[C@H](CC(C)C)NC(=O)[C@](C)(CC(C)C)NC(=O)[C@@H](NC(=O)C(C)(C)NC(=O)[C@H](Cc1ccc(O)cc1)NC(=O)[C@H](CC(=O)O)NC(=O)[C@H](CO)NC(=O)[C@@H](NC(=O)[C@](C)(Cc1ccccc1F)NC(=O)[C@@H](NC(=O)CNC(=O)[C@H](CCC(=O)O)NC(=O)C(C)(C)NC(=O)[C@@H](N)Cc1ccc(O)cc1)[C@@H](C)O)[C@@H](C)O)[C@@H](C)CC)C(=O)N[C@@H](C)C(=O)N[C@@H](CCC(N)=O)C(=O)NC(C)(C)C(=O)N[C@@H](CCCN)C(=O)N[C@@H](Cc1ccccc1)C(=O)N[C@H](C(=O)N[C@@H](CCCCNC(=O)COCCOCCNC(=O)COCCOCCNC(=O)COCCOCCNC(=O)CC[C@H](NC(=O)CCCCCCCCCCCCC(=O)O)C(=O)O)C(=O)N[C@@](C)(Cc1ccc(O)cc1)C(=O)N[C@@H](CC(C)C)C(=O)N[C@H](C(=O)N[C@@H](CCCCNC(=O)COCCOCCNC(=O)COCCOCCNC(=O)COCCOCCNC(=O)CC[C@H](NC(=O)CCCCCCCCCCCCC(=O)O)C(=O)O)C(=O)NCC(=O)NCC(=O)N1CCC[C@H]1C(=O)N[C@@H](CO)C(=O)N[C@@H](CO)C(=O)NCC(=O)N[C@@H](C)C(=O)N1CCC[C@H]1C(=O)N1CCC[C@H]1C(=O)N1CCC[C@H]1C(=O)N[C@@H](CO)C(N)=O)[C@@H](C)CC)[C@@H](C)CC [Example 478]	> 9950 nM	> 9950 nM	109%	0.322 nM	6.16 nM	84%	93.9%	0.0139 nM	–	–	–	–	–	–
CCCCCCCCCCCC(=O)N[C@@H](CCC(=O)NCCOCCOCC(=O)NCCCC[C@H](NC(=O)[C@H](CCCN)NC(=O)[C@H](CC(=O)O)NC(=O)[C@H](CC(C)C)NC(=O)[C@](C)(CC(C)C)NC(=O)[C@@H](NC(=O)C(C)(C)NC(=O)[C@H](Cc1ccncc1)NC(=O)[C@H](CC(=O)O)NC(=O)[C@H](CO)NC(=O)[C@@H](NC(=O)[C@](C)(Cc1ccccc1F)NC(=O)[C@@H](NC(=O)CNC(=O)[C@H](CCC(=O)O)NC(=O)C(C)(C)NC(=O)[C@@H](N)Cc1ccc(O)cc1)[C@@H](C)O)[C@@H](C)O)[C@@H](C)CC)C(=O)N[C@@H](C)C(=O)N[C@@H](CCC(N)=O)C(=O)NC(C)(C)C(=O)N[C@@H](CCCCNC(=O)COCCOCCNC(=O)CC[C@H](NC(=O)CCCCCCCCCCC)C(=O)O)C(=O)N[C@@H](Cc1ccccc1)C(=O)N[C@H](C(=O)N[C@H](CCC(=O)O)C(=O)N[C@@](C)(Cc1ccc(O)cc1)C(=O)N[C@@H](CC(C)C)C(=O)N[C@H](C(=O)N[C@@H](CCC(=O)O)C(=O)NCC(=O)NCC(=O)N1CCC[C@H]1C(=O)N[C@@H](CO)C(=O)N[C@@H](CO)C(=O)NCC(=O)N[C@@H](C)C(=O)N1CCC[C@H]1C(=O)N1CCC[C@H]1C(=O)N1CCC[C@H]1C(=O)N[C@@H](CO)C(N)=O)[C@@H](C)CC)[C@@H](C)CC)C(=O)O [Example 426]	> 9950 nM	> 9950 nM	97.2%	0.206 nM	29.7 nM	91.2%	93.3%	0.0191 nM	–	–	–	–	–	–
CC[C@H](C)[C@H](NC(=O)[C@H](CCCN)NC(=O)[C@H](CC(=O)O)NC(=O)[C@H](CC(C)C)NC(=O)[C@](C)(CC(C)C)NC(=O)[C@@H](NC(=O)[C@](C)(CO)NC(=O)[C@H](Cc1ccncc1)NC(=O)[C@H](CC(=O)O)NC(=O)[C@H](CO)NC(=O)[C@@H](NC(=O)[C@](C)(Cc1ccccc1F)NC(=O)[C@@H](NC(=O)CNC(=O)[C@H](CCC(=O)O)NC(=O)C(C)(C)NC(=O)[C@@H](N)Cc1ccc(O)cc1)[C@@H](C)O)[C@@H](C)O)[C@@H](C)CC)C(=O)N[C@@H](C)C(=O)N[C@@H](CCC(N)=O)C(=O)NC(C)(C)C(=O)N[C@@H](CCC(=O)O)C(=O)N[C@@H](Cc1ccccc1)C(=O)N[C@H](C(=O)N[C@@H](CCCCNC(=O)COCCOCCNC(=O)COCCOCCNC(=O)CC[C@H](NC(=O)CCCCCCCCCOc1ccc(C(=O)O)cc1)C(=O)O)C(=O)N[C@@](C)(Cc1ccc(O)cc1)C(=O)N[C@@H](CC(C)C)C(=O)N[C@H](C(=O)N[C@@H](CCCCNC(=O)COCCOCCNC(=O)COCCOCCNC(=O)CC[C@H](NC(=O)CCCCCCCCCOc1ccc(C(=O)O)cc1)C(=O)O)C(=O)NCC(=O)NCC(=O)N1CCC[C@H]1C(=O)N[C@@H](CO)C(=O)N[C@@H](CO)C(=O)NCC(=O)N[C@@H](C)C(=O)N1CCC[C@H]1C(=O)N1CCC[C@H]1C(=O)N1CCC[C@H]1C(=O)N[C@@H](CO)C(N)=O)[C@@H](C)CC)[C@@H](C)CC [Example 306]	–	–	–	–	–	–	–	–	> 9950 nM	> 9950 nM	105%	0.414 nM	1.12 nM	0.0227 nM
CC[C@H](C)[C@H](NC(=O)[C@H](CC(C)C)NC(=O)[C@](C)(Cc1ccc(O)cc1)NC(=O)[C@H](CCCCNC(=O)COCCOCCNC(=O)COCCOCCNC(=O)CC[C@H](NC(=O)CC[C@H](NC(=O)CCCCCCCCCCCCC(=O)O)C(=O)O)C(=O)O)NC(=O)[C@@H](NC(=O)[C@H](Cc1ccccc1)NC(=O)[C@H](CCCN)NC(=O)C(C)(C)NC(=O)[C@H](CCC(N)=O)NC(=O)[C@H](C)NC(=O)[C@H](CCC(N)=O)NC(=O)[C@H](CCCN)NC(=O)[C@H](CC(=O)O)NC(=O)[C@H](CC(C)C)NC(=O)[C@](C)(CC(C)C)NC(=O)[C@@H](NC(=O)C(C)(C)NC(=O)[C@H](Cc1ccc(O)cc1)NC(=O)[C@H](CC(=O)O)NC(=O)[C@H](CO)NC(=O)[C@@H](NC(=O)[C@](C)(Cc1ccccc1F)NC(=O)[C@@H](NC(=O)CNC(=O)[C@H](CCC(=O)O)NC(=O)C(C)(C)NC(=O)[C@@H](N)Cc1ccc(O)cc1)[C@@H](C)O)[C@@H](C)O)[C@@H](C)CC)[C@@H](C)CC)C(=O)N[C@@H](CCCCNC(=O)COCCOCCNC(=O)COCCOCCNC(=O)CC[C@H](NC(=O)CC[C@H](NC(=O)CCCCCCCCCCCCC(=O)O)C(=O)O)C(=O)O)C(=O)NCC(=O)NCC(=O)N1CCC[C@H]1C(=O)N[C@@H](CO)C(=O)N[C@@H](CO)C(=O)NCC(=O)N[C@@H](C)C(=O)N1CCC[C@H]1C(=O)N1CCC[C@H]1C(=O)N1CCC[C@H]1C(=O)N[C@@H](CO)C(N)=O [Example 480]	> 9950 nM	> 9950 nM	120%	0.124 nM	2.65 nM	–	–	0.00955 nM	–	–	–	–	–	–
